Experimental data reported in publication PMC4814829, “Design, synthesis, crystallization and biological evaluation of new symmetrical biscationic compounds as selective inhibitors of human Choline Kinase α1 (ChoKα1)” (Scientific Reports, 2016).

Legend:
MCF-7 cells = test: Antiproliferative MTT assay; type: cell-based; conditions: Homo sapiens, MCF7, 72 h, mean ± SEM
Experimental: (§1) Human T-cell leukemia (Jurkat), human B-cell leukemia (RS 4,11) and human promyelocytic leukemia (HL-60) cells were grown in RPMI-1640 medium (Gibco, Milan, Italy). Breast adenocarcinoma (MCF-7 and MDA-MB-231), human non-small cell lung carcinoma (A549), human cervix carcinoma (HeLa), human prostate adenocarcinoma (PC-3), and human colon adenocarcinoma (HT-29) cells were grown in DMEM medium (Gibco, Milan, Italy). Both media were supplemented with 115 units/mL of penicillin G (Gibco, Milan, Italy), 115 μg/mL of streptomycin (Invitrogen, Milan, Italy) and 10% fetal bovine serum (Invitrogen, Milan, Italy). Stock solutions (10 mM) of the different compounds were obtained by dissolving them in DMSO. Individual wells of 96-well tissue-culture microtiter plates were inoculated with 100 μL of complete medium containing 8 × 10^3 cells. The plates were incubated at 37 °C in a humidified 5% CO2 incubator for 18 h prior to the experiments. After medium removal, 100 μL of fresh medium containing the test compound at different concentrations was added to each well and incubated at 37 °C for 72 h. The percentage of DMSO in the medium in no case exceeded 0.25%.

MDA-MB-231 cells [1] = test: Antiproliferative MTT assay; type: cell-based; conditions: Homo sapiens, 72 h, mean ± SEM
Experimental: as §1

Jurkat cells [2] = test: Antiproliferative MTT assay; type: cell-based; conditions: Homo sapiens, 72 h, mean ± SEM
Experimental: as §1

RS4,11 cells = test: Antiproliferative MTT assay; type: cell-based; conditions: Homo sapiens, 72 h, mean ± SEM
Experimental: as §1

HeLa cells [3] = test: Antiproliferative MTT assay; type: cell-based; conditions: Homo sapiens, 72 h, mean ± SEM
Experimental: as §1

HT-29 cells = test: Antiproliferative MTT assay; type: cell-based; conditions: Homo sapiens, 72 h, mean ± SEM
Experimental: as §1

A549 cells = test: Antiproliferative MTT assay; type: cell-based; conditions: Homo sapiens, 72 h, mean ± SEM
Experimental: as §1

HL-60 cells = test: Antiproliferative MTT assay; type: cell-based; conditions: Homo sapiens, 72 h, mean ± SEM
Experimental: as §1

PC-3 cells = test: Antiproliferative MTT assay; type: cell-based; conditions: Homo sapiens, 72 h, mean ± SEM
Experimental: as §1

Jurkat cells [4] = test: Trypan blue exclusion assay; type: cell-based, human
Experimental: Human T-cell leukemia (Jurkat), human B-cell leukemia (RS 4,11) and human promyelocytic leukemia (HL-60) cells were grown in RPMI-1640 medium (Gibco, Milan, Italy). Breast adenocarcinoma (MCF-7 and MDA-MB-231), human non-small cell lung carcinoma (A549), human cervix carcinoma (HeLa), human prostate adenocarcinoma (PC-3), and human colon adenocarcinoma (HT-29) cells were grown in DMEM medium (Gibco, Milan, Italy). […] Stock solutions (10 mM) of the different compounds were obtained by dissolving them in DMSO. Individual wells of 96-well tissue-culture microtiter plates were inoculated with 100 μL of complete medium containing 8 × 10^3 cells. The plates were incubated at 37 °C in a humidified 5% CO2 incubator for 18 h prior to the experiments. […] In additional experiments, cell viability was also determined by calculating the values of trypan blue positive cells (dead cells) and trypan blue negative (live cells) from a mixture of the cell suspension and 0.4% trypan blue solution. page 7: S-7 0 24 48 72 0.0 2.0x10 5 4.0x10 5 6.0x10^5 Cells/ml Time ([…] Figure S5 […] washed, counted, and incubated in a drug-free medium. After a further 72 h of incubation, cell viability was analyzed by trypan blue exclusion assay as described in the experimental section. (1 picture or pasted object on this page, not shown here)

HUVEC = test: Antiproliferative assay in non-tumoral cells; type: cell-based; conditions: Homo sapiens, mean ± SEM
Experimental: Human Umbilical Vein Endothelial cells (HUVEC), were prepared from human umbilical-cord veins, as previously described. The adherent cells were maintained in M200 medium added by LSGS (low serum growth supplement), containing FBS, hydrocortisone, hEGF, bFGF, heparin, gentamycin/amphotericin (Life Technologies, Monza, Italy). Once confluent, the cells were detached by trypsin–EDTA solution and used in experiments from the first to sixth passages.

MDA-MB-231 cells [5] = test: Trypan blue exclusion assay; type: cell-based, human; conditions: MDA-MB-231, concentration-dependent
Experimental: as §1

HeLa cells [6] = test: Trypan blue exclusion assay; type: cell-based, human; conditions: concentration-dependent
Experimental: as §1

human ChoKα1 = target: T1, human ChoKα1 (Homo sapiens, UniProt P35790); test: Tryptophan fluorescence quenching; type: binding; conditions: mean ± S.D. of at least three independent experiments; 25 °C, enzyme 1 μM; read-out: HsChoKα1 Kd
T1 construct: made in house
Experimental: All compounds were prepared in 100% DMSO. Their Kds against human ChoKα1 were measured by monitoring the quenching of tryptophan fluorescence. All experiments were performed in a Cary Eclipse spectrofluorometer (Varian) at 25 °C with the enzymes at 1 μM, and concentrations of compounds varying from 0.1 to 5 μM for ChoKα1 in 25 mM Tris, 150 mM NaCl, pH 7.5. Fluorescence emission spectra were recorded in the 300–400 nm range with an excitation wavelength of 280 nm, with slit width of 5 nm. Controls were determined by incubating the enzymes with equivalent amounts of DMSO. As indicated previously, data analysis was performed in Prism (GraphPad software) considering a model with a single binding site (Eq. 1), where F0 is the intrinsic fluorescence of the enzyme in the absence of quencher (Q), F1 is the observed fluorescence at a given quencher concentration, fa is the fractional degree of fluorescence, and Kd is the dissociation constant.

PBL (resting) = test: Antiproliferative assay in non-tumoral cells (MTT); type: cell-based; conditions: Homo sapiens, 72 h, mean ± SEM
Experimental: (§2) Peripheral mononuclear cells (PBMC) from healthy donors were obtained by separation on Lymphoprep (Fresenius KABI Norge AS) gradient. After extensive washing, cells were resuspended (1 × 10^6 cells/mL) in RPMI-1640 with 10% fetal bovine serum and incubated overnight. For cytotoxicity evaluations in proliferating PBL cultures, non-adherent cells were resuspended at 5 × 10^5 cells/mL in growth medium, containing 2.5 μg/mL PHA (Irvine Scientific). Different concentrations of the test compounds were added, and viability was determined 72 h later by the MTT test. For cytotoxicity evaluations in resting PBL cultures, non-adherent cells were resuspended (5 × 10^5 cells/mL) and treated for 72 h with the test compounds, as described above.

PBL (+Pha) = test: Antiproliferative assay in non-tumoral cells (MTT); type: cell-based; conditions: Homo sapiens, non-tumoral cells stimulated with phytohematoagglutinin, 72 h, mean ± SEM
Experimental: as §2

purified human ChoKα1 = purified human ChoKα1 (Homo sapiens, UniProt P35790); test: Determination of human choline kinase α1 activity ([methyl-14C]choline incorporation into phosphocholine); type: biochemical; conditions: mean ± SEM, three independent experiments; read-out: IC50 ChoKα1 purified
purified human ChoKα1, sequence (P35790 whole entry): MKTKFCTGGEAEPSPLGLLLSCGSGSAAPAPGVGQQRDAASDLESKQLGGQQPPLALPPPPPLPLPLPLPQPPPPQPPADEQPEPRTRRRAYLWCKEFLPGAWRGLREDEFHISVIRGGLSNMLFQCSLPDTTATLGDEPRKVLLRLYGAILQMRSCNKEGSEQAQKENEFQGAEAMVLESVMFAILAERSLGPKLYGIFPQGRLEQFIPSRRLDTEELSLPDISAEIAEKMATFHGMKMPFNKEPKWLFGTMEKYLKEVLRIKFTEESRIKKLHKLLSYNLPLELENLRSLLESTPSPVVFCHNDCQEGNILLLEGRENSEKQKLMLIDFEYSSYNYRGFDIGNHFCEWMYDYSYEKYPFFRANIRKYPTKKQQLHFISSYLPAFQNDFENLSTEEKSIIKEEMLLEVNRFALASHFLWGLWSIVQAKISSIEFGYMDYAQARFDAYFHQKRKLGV
Experimental: The effect of the different inhibitors on human choline kinase (ChoK) was assayed in ChoKα1 purified as previously described[32]. In each experiment DMSO-assays were always run in parallel as a control. DMSO in no case exceeded a concentration of 0.1% in order to avoid unspecific ChoK inhibition. ChoK activity was assayed by measuring the rate of incorporation of ^14C from [methyl-^14C]choline into phosphocholine both in the presence or absence of different inhibitor concentrations. Briefly, the final reaction mixture contained 100 mM Tris (pH 8.5), 10 mM MgCl2, and 10 mM ATP, and 20 ng of purified ChoKα1. […] The assay was stopped by immersing the reaction tubes in boiling water for 3 min. Aliquots of the reaction mixture were applied to the origin of Silica Gel plates in the presence of phosphocholine (0.1 mg) and choline (0.1 mg) as carriers. The chromatography was developed in methanol/0.6% NaCl/28% NH4OH in water (50:50:5, v/v/v) as solvent. Phosphocholine was visualized under exposure to iodine vapor and the corresponding spot was scraped and transferred to scintillation vials for measurement of radioactivity by a Beckman 6000-TA (Madrid, Spain) liquid-scintillation counter. At least three experiments were performed in all assays.

T1 sequence (P35790 whole entry): as above

GI50 (MCF-7 cells): 0.092 ± 0.019 µM
GI50 (MDA-MB-231 cells [1]): 0.1 ± 0.05 µM
GI50 (Jurkat cells [2]): 0.12 ± 0.08 µM
GI50 (RS4,11 cells): 0.045 ± 0.005 µM
GI50 (HeLa cells [3]): 0.079 ± 0.024 µM
GI50 (HT-29 cells): 0.11 ± 0.01 µM
GI50 (A549 cells): 0.027 ± 0.01 µM
GI50 (HL-60 cells): 0.1 ± 0.04 µM
GI50 (PC-3 cells): 0.051 ± 0.01 µM
Kd (human ChoKα1): 0.7 ± 0.08 µM
IC50 (purified human ChoKα1): 1 ± 0.01 µM
Compound: CN(C)c1cc[n+](Cc2ccc(OCCOc3ccc(C[n+]4ccc(N(C)C)cc4)cc3)cc2)cc1.[Br-].[Br-] [Compound 10a, 1,1′-(((ethane-1,2-diylbis(oxy))bis(4,1-phenylene))bis(methylene))bis(4-(dimethylamino)pyridinium) bromide]
Proliferation after washout of compound (Jurkat cells [4]; 72 h treatment, washed, further 72 h in drug-free medium): proliferation continued to be inhibited
Cell growth by trypan blue count (Jurkat cells [4]; concentration-dependent): significantly inhibited cell growth
GI50 (HUVEC): 5.1 ± 0.43 µM
Cell growth by trypan blue count (MDA-MB-231 cells [5]): significantly inhibited cell growth
Cell growth by trypan blue count (HeLa cells [6]): significantly inhibited cell growth
GI50 (PBL (resting)): 1.5 ± 0.64 µM
GI50 (PBL (+Pha)): 0.034 ± 0.007 µM
